# Laboratory results reported in US8618299B2, “Azinone-substituted azapolycycle MCH-1 antagonists, methods of making, and use thereof” (Albany Molecular Research, Inc., priority 2009, dated 2013).
# Where a name gives a salt, the structure may show the parent alone.
# Tested on: not given
# Assay: not given
# Settings: not given
row,SMILES,melting point
1,"Cc1ccc(-c2ccn(-c3ccc4c5c(n(C)c4c3)CCN3CCCC53)c(=O)c2)cn1 (stereo not shown) (as salt: hydrochloride) [Example 15, 1-(7-Methyl-2,3,5,6,7,11c-hexahydro-1H-indolizino[7,8-b]indol-9-yl)-4-(6-methylpyridin-3-yl)pyridin-2(1H)-one Hydrochloride]",280 to 283 °C
2,"Cc1ccc(COc2ccn(-c3ccc4c5c(n(C)c4c3)CC3CCCN3C5)c(=O)c2)cn1 (stereo not shown) (as salt: hydrochloride) [Example 31, 1-(10-Methyl-2,3,5,10,11,11a-hexahydro-1H-indolizino[7,6-b]indol-8-yl)-4-((6-methylpyridin-3-yl)methoxy)pyridin-2(1H)-one Hydrochloride]",260 to 263 °C
3,"Cc1ccc(-c2ccn(-c3ccc4c5c(n(C)c4c3)CC3CCCCN3C5)c(=O)c2)cn1 (stereo not shown) (as salt: hydrochloride) [Example 35, 1-(5-Methyl-5,6,6a,7,8,9,10,12-octahydroindolo[2,3-b]quinolizin-3-yl)-4-(6-methylpyridin-3-yl)pyridin-2(1H)-one Dihydrochloride]",256 to 260 °C
4,"Cn1c2c(c3ccc(-n4ccc(OCc5ccc(F)cn5)cc4=O)cc31)C1CCCN1CC2 (stereo not shown) (as salt: hydrochloride) [Example 19, 4-((5-Fluoropyridin-2-yl)methoxy)-1-(7-methyl-2,3,5,6,7,11c-hexahydro-1H-indolizino[7,8-b]indol-9-yl)pyridin-2(1H)-one Dihydrochloride]",240 to 243 °C

# Results, then the compound that gave them:
row,melting point,SMILES
1,210 to 214 °C,"Cc1ccc(COc2ccn(-c3ccc4c5c(n(C)c4c3)CCN3CCCCC53)c(=O)c2)cn1 (stereo not shown) (as salt: hydrochloride) [Example 23, 1-(8-Methyl-1,2,3,4,6,7,8,12c-octahydroindolo[3,2-a]quinolizin-10-yl)-4-((6-methylpyridin-3-yl)methoxy)pyridin-2(1H)-one Dihydrochloride]"
2,305 °C (dec.),"Cc1ccc(-c2ccn(-c3ccc4c5c(n(C)c4c3)CC3CCCN3C5)c(=O)c2)cn1 (stereo not shown) (as salt: hydrochloride) [Example 13, 1-(10-Methyl-2,3,5,10,11,11a-hexahydro-1H-indolizino[7,6-b]indol-8-yl)-4-(6-methylpyridin-3-yl)pyridin-2(1H)-one Hydrochloride]"
3,290 to 293 °C,"Cn1c2c(c3ccc(-n4ccc(OCc5ccc(F)cn5)cc4=O)cc31)CN1CCCC1C2 (stereo not shown) (as salt: hydrochloride) [Example 12, 4-((5-Fluoropyridin-2-yl)methoxy)-1-(10-methyl-2,3,5,10,11,11a-hexahydro-1H-indolizino[7,6-b]indol-8-yl)pyridin-2(1H)-one Hydrochloride]"
4,256 to 258 °C,"Cn1c2c(c3ccc(-n4ccc(OCc5ccc(F)cn5)cc4=O)cc31)C1CCCCN1CC2 (stereo not shown) (as salt: hydrochloride) [Example 21, 4-((5-Fluoropyridin-2-yl)methoxy)-1-(8-methyl-1,2,3,4,6,7,8,12c-octahydroindolo[3,2-a]quinolizin-10-yl)pyridin-2(1H)-one Hydrochloride]"

# Target: human MCH-1 receptor (Homo sapiens (Human), UniProt Q99705)
# Sequence (Q99705 whole entry): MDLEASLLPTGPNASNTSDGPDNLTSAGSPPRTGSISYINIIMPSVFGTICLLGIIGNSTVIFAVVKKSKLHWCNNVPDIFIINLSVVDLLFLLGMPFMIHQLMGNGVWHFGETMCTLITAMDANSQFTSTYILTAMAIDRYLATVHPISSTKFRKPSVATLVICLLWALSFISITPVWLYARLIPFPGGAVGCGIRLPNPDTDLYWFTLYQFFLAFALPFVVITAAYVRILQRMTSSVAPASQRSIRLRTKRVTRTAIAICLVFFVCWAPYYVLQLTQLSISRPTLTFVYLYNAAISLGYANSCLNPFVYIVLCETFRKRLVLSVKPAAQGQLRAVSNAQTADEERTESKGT
# Assay: Binding assay for human melanin-concentrating hormone (MCH1) receptor
# Settings: membranes from CHO-K1 cells expressing human MCH1 receptor; 1.4 nM [3H]-labeled radioligand, 60 min at 25° C., pH 7.4; Ki from Cheng Prusoff equation
# Protocol: Binding Assay for Human Melanin-Concentrating Hormone (MCH1) Receptor
# Evaluation of the affinity of compounds for the human MCH-1 receptor was accomplished using 4-(3,4,5-tritritiumbenzyloxy)-1-(1-(2-(pyrrolidin-1-yl)ethyl)-1H-indazol-5-yl)pyridin-2(1H)-one and membranes prepared from stable CHO-K1 cells expressing the human MCH1 receptor obtained from Euroscreen (Batch 1138). Cell membrane homogenates (8.92 μg protein) were incubated for 60 min at 25° C. with 1.4 nM of the [^3H]-labeled compound in the absence or presence of the test compound in 50 mM Tris-HCl buffer, pH 7.4. Nonspecific binding was determined in the presence of 50 μM 1-(5-(4-cyanophenyl)bicyclo[3.1.0]hexan-2-yl)-3-(4-fluoro-3-(trifluoromethyl)phenyl)-1-(3-(4-methylpiperazin-1-yl)propyl)urea. Following incubation, the samples were filtered rapidly under vacuum through Skatron 11731 filters, pre-soaked in 0.5% polyethylenimine, and washed with ice-cold 50 mM Tris-HCl buffer, pH 7.4, (wash setting 9,9,0) using a Skatron cell harvester. The filters were counted for radioactivity in a liquid scintillation counter (Tri-Carb 2100TR, Packard) using a scintillation cocktail (Ultima Gold MV, Perkin Elmer).
# The results are expressed as a percent inhibition of the control radioligand specific binding. The IC50 value (concentration causing a half-maximal inhibition of control specific binding) and Hill coefficient (nH) were determined by non-linear regression analysis of the competition curve using Hill equation curve fitting. The inhibition constant (Ki) was calculated from the Cheng Prusoff equation: (Ki=IC50/(1+(L/KD)), where L=concentration of radioligand in the assay, and KD=affinity of the radioligand for the receptor.
row,SMILES,Ki
1,"Cc1ccc(COc2ccn(-c3ccc4c5c(n(C)c4c3)CCN3CCCCC53)c(=O)c2)cn1 (stereo not shown) [Example 23, 1-(8-Methyl-1,2,3,4,6,7,8,12c-octahydroindolo[3,2-a]quinolizin-10-yl)-4-((6-methylpyridin-3-yl)methoxy)pyridin-2(1H)-one Dihydrochloride]",19 nM
2,"Cn1c2c(c3ccc(-n4ccc(OCc5ccc(F)cn5)cc4=O)cc31)CCN1CCCC21 (stereo not shown) [Example 43, 4-((5-Fluoropyridin-2-yl)methoxy)-1-(11-methyl-2,3,5,6,11,11b-hexahydro-1H-indolizino[8,7-b]indol-9-yl)pyridin-2(1H)-one Dihydrochloride]",26 nM
3,"Cn1c2c(c3ccc(-n4ccc(OCc5ccccc5)cc4=O)cc31)CCN1CCCCCC21 (stereo not shown) [Example 10, 4-(Benzyloxy)-1-(13-methyl-2,3,4,5,7,8,13,13b-octahydro-1H-pyrido[1,2-a]azepino[10,9-b]indol-10-yl)pyridin-2(1H)-one Hydrochloride]",47 nM
4,"O=c1cc(OCc2ccc(Cl)cc2F)ccn1-c1ccc2c3c([nH]c2c1)CC1CCCN1C3 (stereo not shown) [Example 42, 4-(4-Chloro-2-fluorobenzyloxy)-1-(2,3,5,10,11,11a-hexahydro-1H-indolizino[7,6-b]indol-8-yl)pyridin-2(1H)-one Hydrochloride]",19 nM
5,"Cc1ccc(-c2ccn(-c3ccc4c5c(n(C)c4c3)CCN3CCCC53)c(=O)c2)cn1 (stereo not shown) [Example 15, 1-(7-Methyl-2,3,5,6,7,11c-hexahydro-1H-indolizino[7,8-b]indol-9-yl)-4-(6-methylpyridin-3-yl)pyridin-2(1H)-one Hydrochloride]",76 nM
6,"Cn1c2c(c3ccc(-n4ccc(OCc5ccc(F)cn5)cc4=O)cc31)C1CCCN1CC2 (stereo not shown) [Example 19, 4-((5-Fluoropyridin-2-yl)methoxy)-1-(7-methyl-2,3,5,6,7,11c-hexahydro-1H-indolizino[7,8-b]indol-9-yl)pyridin-2(1H)-one Dihydrochloride]",11 nM
7,"Cc1ccc(COc2ccn(-c3ccc4c5c(n(C)c4c3)CCN3CCCC53)c(=O)c2)cn1 (stereo not shown) [Example 20, 1-(7-Methyl-2,3,5,6,7,11c-hexahydro-1H-indolizino[7,8-b]indol-9-yl)-4-((6-methylpyridin-3-yl)methoxy)pyridin-2(1H)-one Dihydrochloride]",13 nM
8,"Cc1ccc(COc2ccn(-c3ccc4c5c(n(C)c4c3)CC3CCCCN3C5)c(=O)c2)cn1 (stereo not shown) [Example 33, 1-(5-Methyl-5,6,6a,7,8,9,10,12-octahydroindolo[2,3-b]quinolizin-3-yl)-4-((6-methylpyridin-3-yl)methoxy)pyridin-2(1H)-one Dihydrochloride]",31 nM
9,"Cc1ccc(COc2ccn(-c3ccc4c5c(n(C)c4c3)CC3CCCN3C5)c(=O)c2)cn1 (stereo not shown) [Example 31, 1-(10-Methyl-2,3,5,10,11,11a-hexahydro-1H-indolizino[7,6-b]indol-8-yl)-4-((6-methylpyridin-3-yl)methoxy)pyridin-2(1H)-one Hydrochloride]",22 nM

# Continued, values first:
row,Ki,SMILES
1,21 nM,"Cn1c2c(c3ccc(-n4ccc(OCc5ccc(F)cn5)cc4=O)nc31)C1CCCN1CC2 (stereo not shown) [Example 45, 4-((5-Fluoropyridin-2-yl)methoxy)-1-(7-methyl-2,3,5,6,7,11c-hexahydro-1H-pyrido[3′,2′:4,5]pyrrolo[2,3-g]indolizin-9-yl)pyridin-2(1H)-one Hydrochloride]"
2,59 nM,"Cc1ccc(-c2ccn(-c3ccc4c5c(n(C)c4c3)CC3CCCN3C5)c(=O)c2)cn1 (stereo not shown) [Example 13, 1-(10-Methyl-2,3,5,10,11,11a-hexahydro-1H-indolizino[7,6-b]indol-8-yl)-4-(6-methylpyridin-3-yl)pyridin-2(1H)-one Hydrochloride]"
3,6 nM,"O=c1cc(OCc2ccccc2)ccn1-c1ccc2c3c([nH]c2c1)CCN1CCCC31 (stereo not shown) [Example 24, 4-(Benzyloxy)-1-(2,3,5,6,7,11c-hexahydro-1H-indolizino[7,8-b]indol-9-yl)pyridin-2(1H)-one Hydrochloride]"
4,14 nM,"O=c1cc(OCc2ccc(F)cn2)ccn1-c1ccc2c3c([nH]c2c1)CC1CCCN1C3 (stereo not shown) [Example 40, 4-((5-Fluoropyridin-2-yl)methoxy)-1-(2,3,5,10,11,11a-hexahydro-1H-indolizino[7,6-b]indol-8-yl)pyridin-2(1H)-one Hydrochloride]"
5,14 nM,"O=c1cc(OCc2ccc(F)cn2)ccn1-c1ccc2c3c([nH]c2c1)CCN1CCCC31 (stereo not shown) [Example 25, 4-((5-Fluoropyridin-2-yl)methoxy)-1-(2,3,5,6,7,11c-hexahydro-1H-indolizino[7,8-b]indol-9-yl)pyridin-2(1H)-one Hydrochloride]"
6,193 nM,"Cc1ccc(-c2ccn(-c3ccc4c5c(n(C)c4c3)CC3CCCCN3C5)c(=O)c2)cn1 (stereo not shown) [Example 35, 1-(5-Methyl-5,6,6a,7,8,9,10,12-octahydroindolo[2,3-b]quinolizin-3-yl)-4-(6-methylpyridin-3-yl)pyridin-2(1H)-one Dihydrochloride]"
7,8.4 nM,"Cn1c2c(c3ccc(-n4ccc(OCc5ccc(F)cn5)cc4=O)cc31)C1CCCCN1CC2 (stereo not shown) [Example 21, 4-((5-Fluoropyridin-2-yl)methoxy)-1-(8-methyl-1,2,3,4,6,7,8,12c-octahydroindolo[3,2-a]quinolizin-10-yl)pyridin-2(1H)-one Hydrochloride]"

# Same assay, conditions: membranes from CHO-K1 cells expressing human MCH1 receptor; 1.4 nM [3H]-labeled radioligand, 60 min at 25° C., pH 7.4; Ki from Cheng Prusoff equation; Dihydrochloride
row,SMILES,Ki
1,"Cn1c2c(c3ccc(-n4ccc(OCc5ccc(F)cn5)cc4=O)cc31)CN1CCCCC1C2 (stereo not shown) [Example 37, 4-((5-Fluoropyridin-2-yl)methoxy)-1-(5-methyl-5,6,6a,7,8,9,10,12-octahydroindolo[2,3-b]quinolizin-3-yl)pyridin-2(1H)-one Dihydrochloride]",10 nM
